Results published in ChEMBL document CHEMBL1129907, “The SAR of UK-78,282: A novel blocker of human T cell Kv1.3 potassium channels” (Bioorg Med Chem Lett, 1997).

What was measured:
[1] = test system: T-cell line; assay: In vitro inhibitory potency against human T-cells Rb efflux; format: functional, cell-based
[2] = biological target: Potassium voltage-gated channel subfamily A member 3 (Homo sapiens, UniProt P22001); assay: In vitro inhibition of human T-cells voltage-gated potassium channel subunit Kv1.3; format: cell-based, T-cell
Chain of Potassium voltage-gated channel subfamily A member 3 (P22001 whole entry): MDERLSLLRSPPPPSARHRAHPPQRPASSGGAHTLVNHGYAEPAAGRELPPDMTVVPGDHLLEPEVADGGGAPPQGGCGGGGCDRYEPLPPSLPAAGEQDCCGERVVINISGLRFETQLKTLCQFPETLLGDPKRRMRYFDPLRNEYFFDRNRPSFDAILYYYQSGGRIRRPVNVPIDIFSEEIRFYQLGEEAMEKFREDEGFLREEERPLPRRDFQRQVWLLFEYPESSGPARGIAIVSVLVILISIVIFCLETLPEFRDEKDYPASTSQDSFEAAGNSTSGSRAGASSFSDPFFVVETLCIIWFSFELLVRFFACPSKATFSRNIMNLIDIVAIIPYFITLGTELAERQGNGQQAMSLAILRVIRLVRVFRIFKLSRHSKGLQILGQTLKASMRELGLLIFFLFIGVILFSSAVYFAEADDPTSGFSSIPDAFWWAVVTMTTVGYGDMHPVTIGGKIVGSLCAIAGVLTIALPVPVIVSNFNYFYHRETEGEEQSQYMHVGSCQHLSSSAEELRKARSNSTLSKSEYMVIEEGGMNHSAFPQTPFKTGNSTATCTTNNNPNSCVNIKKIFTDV

[3] = test system: T-cell line; assay: In vitro inhibition of Rb efflux in human T-cells; 1-10; format: functional, cell-based

How did the IC50 [1] turn out when COc1ccc(CCC[n+]2ccc(COC(c3ccccc3)c3ccccc3)cc2)cc1 was run?
Its IC50 is over 20000 nM.

For COc1ccc(CCCN2CCC(CNC(c3ccccc3)c3ccccc3)CC2)cc1, which IC50 [1] is on record?
Its IC50 is 2800 nM.

For COc1ccc(CCCN2CCC(COC(c3ccc(Br)cc3)c3ccc(Br)cc3)CC2)cc1, which IC50 [1] is on record?
Its IC50 is 3200 nM.

How did the IC50 [1] turn out when COc1ccc(CCCN2C3CCC2CC(COC(c2ccccc2)c2ccccc2)C3)cc1 (stereo not given) was run?
The IC50 was 400 nM.

With CCN1CCC(COC(c2ccccc2)c2ccccc2)CC1 as the compound, how does the IC50 [1] read?
The IC50 was over 20000 nM.

How did the IC50 [1] turn out when Clc1ccc(CCCN2CCC(COC(c3ccccc3)c3ccccc3)CC2)cc1Cl was run?
Its IC50 is 2200 nM.

How did the IC50 [1] turn out when c1ccc(C(OCC2CCN(CC3CCc4ccccc4C3)CC2)c2ccccc2)cc1 (stereo not given) was run?
The IC50 was 5600 nM.

CCCCCN1CCC(COC(c2ccccc2)c2ccccc2)CC1 was tested. Which IC50 [1] did it give?
Its IC50 is 10800 nM.

Which IC50 [1] does the source give for COc1cccc(CCCN2CCC(COC(c3ccccc3)c3ccccc3)CC2)c1 here?
The IC50 was 1500 nM.

With COc1ccc(CCCN2CCC(CCC(c3ccccc3)c3ccccc3)CC2)cc1 as the compound, how does the IC50 [1] read?
The IC50 was 200 nM.

How did the IC50 [1] turn out when COc1ccc(CCCN2CCC(C(O)CC(c3ccccc3)c3ccccc3)CC2)cc1 (stereo not given) was run?
Its IC50 is 1500 nM.

COc1ccc(CCCN2CCC(COCc3ccc(Cl)c(Cl)c3)CC2)cc1 was tested. Which IC50 [1] did it give?
The IC50 was 200 nM.

COc1ccc(CC2(CN3CCC(COC(c4ccccc4)c4ccccc4)CC3)CCCCC2)cc1 was tested. Which IC50 [1] did it give?
The IC50 was 3400 nM.

C(#Cc1ccccc1)CN1CCC(COC(c2ccccc2)c2ccccc2)CC1 was tested. Which IC50 [1] did it give?
Its IC50 is over 20000 nM.

Which IC50 [1] does the source give for CCCN1CCC(COC(c2ccccc2)c2ccccc2)CC1 here?
The IC50 was 17800 nM.

How did the IC50 [1] turn out when COc1ccc(CCCN2CCC(=CCC(c3ccccc3)c3ccccc3)CC2)cc1 was run?
Its IC50 is 400 nM.

Which IC50 [1] does the source give for COc1ccc(CCCN2CCC(COCc3ccccc3)CC2)cc1 here?
Its IC50 is 2100 nM.

How did the IC50 [1] turn out when Clc1ccccc1CCCN1CCC(COC(c2ccccc2)c2ccccc2)CC1 was run?
Its IC50 is 800 nM.

With COc1ccc(CCCN2CCC(COCc3ccccn3)CC2)cc1 as the compound, how does the IC50 [1] read?
Its IC50 is 5900 nM.

For c1ccc(CCCN2CCC(COC(c3ccccc3)c3ccccc3)CC2)cc1, which IC50 [1] is on record?
The IC50 was 700 nM.

For COc1ccc(CCN2CCC(COC(c3ccccc3)c3ccccc3)CC2)cc1, which IC50 [1] is on record?
The IC50 was 2900 nM.

For COc1ccc(CCCN2CCC(COC(c3ccc(Cl)cc3)c3ccc(Cl)cc3)CC2)cc1, which IC50 [1] is on record?
Its IC50 is 1100 nM.

With CCCCCCCCCN1CCC(COC(c2ccccc2)c2ccccc2)CC1 as the compound, how does the IC50 [1] read?
The IC50 was 700 nM.

How did the IC50 [1] turn out when COc1ccc(CCCN2CCN(CCC(c3ccccc3)c3ccccc3)CC2)cc1 was run?
The IC50 was 2700 nM.

With CN1CCC(COC(c2ccccc2)c2ccccc2)CC1 as the compound, how does the IC50 [1] read?
The IC50 was over 20000 nM.

How did the IC50 [1] turn out when CCCCCCCCN1CCC(COC(c2ccccc2)c2ccccc2)CC1 was run?
Its IC50 is 700 nM.

With COc1ccc(/C=C/CN2CCC(COC(c3ccccc3)c3ccccc3)CC2)cc1 as the compound, how does the IC50 [1] read?
The IC50 was 4300 nM.

Which IC50 [1] does the source give for COc1ccc(CCCN2CCC(CO)CC2)cc1 here?
Its IC50 is over 20000 nM.

CCCCCCCCCCN1CCC(COC(c2ccccc2)c2ccccc2)CC1 was tested. Which IC50 [1] did it give?
The IC50 was 2600 nM.

Which IC50 [1] does the source give for COc1ccc(CCCN2CCC(COCc3ccc(Cl)cc3)CC2)cc1 here?
The IC50 was 500 nM.

With Clc1ccc(CCCN2CCC(COC(c3ccccc3)c3ccccc3)CC2)cc1 as the compound, how does the IC50 [1] read?
Its IC50 is 500 nM.

Which IC50 [1] does the source give for COc1ccccc1CCCN1CCC(COC(c2ccccc2)c2ccccc2)CC1 here?
Its IC50 is 2400 nM.

Which IC50 [2] does the source give for COc1ccc(CCCN2CCC(COC(c3ccccc3)c3ccccc3)CC2)cc1 here?
Its IC50 is 200 nM.

And the IC50 [1]?
Its IC50 is 400 nM.

With CCCCN1CCC(COC(c2ccccc2)c2ccccc2)CC1 as the compound, how does the IC50 [1] read?
Its IC50 is 14000 nM.

Which IC50 [1] does the source give for Cc1ccc(CCCN2CCC(COC(c3ccccc3)c3ccccc3)CC2)cc1 here?
Its IC50 is 200 nM.

COc1ccc(CCCN2CCC(COC(c3ccccc3)c3ccc(Cl)cc3)CC2)cc1 (stereo not given) was tested. Which IC50 [1] did it give?
Its IC50 is 200 nM.

With COc1ccc(CCCN2CCC(COCC3CCCCC3)CC2)cc1 as the compound, how does the IC50 [1] read?
The IC50 was 3000 nM.

CCCCCCCN1CCC(COC(c2ccccc2)c2ccccc2)CC1 was tested. Which IC50 [1] did it give?
Its IC50 is 500 nM.

With CCCCCCN1CCC(COC(c2ccccc2)c2ccccc2)CC1 as the compound, how does the IC50 [1] read?
The IC50 was 5500 nM.

Which IC50 [3] does the source give for CCCCCCC[N+](CC)(CC)CCCCc1ccc(Cl)cc1 [CLOFILIUM] here?
The IC50 was 1000 nM.

Which IC50 [3] does the source give for CN(CCOc1ccc(NS(C)(=O)=O)cc1)CCc1ccc(NS(C)(=O)=O)cc1 [DOFETILIDE] here?
Its IC50 is 1000 nM.

With COc1ccc(Cl)cc1C(=O)NCCc1ccc(S(=O)(=O)NC(=O)NC2CCCCC2)cc1 [GLYBURIDE] as the compound, how does the IC50 [3] read?
The IC50 was 1000 nM.

Which IC50 [3] does the source give for CC(C)NCC(O)c1ccc(NS(C)(=O)=O)cc1 (stereo not given) [SOTALOL] here?
The IC50 was 1000 nM.

CC[N+](CC)(CC)CC [TETRYLAMMONIUM] was tested. Which IC50 [3] did it give?
The IC50 was 1000 nM.
